This note sets out measurements from PubChem BioAssay AID192 (DTP/NCI, 2004).

Each structure is given as a SMILES string. Toxic doses and inconclusive results are not listed.

This assay concerns BDF1 mice, B16 melanoma ip, median survival T/C. The assay can be described thus: NCI In Vivo Anticancer Drug Screen. Data for tumor model B16 Melanoma (intraperitoneal) in B6D2F1 (BDF1) mice. The conditions noted are these: endpoint: median survival time, higher = longer survival. The method, boiled down: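 In this screen, activity was judged from survival or tumor size in treated versus vehicle-treated tumor-bearing mice, reported as T/C.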

The mark [1] stands for this setting: dose: 6.25 mg/kg/injection, schedule: Q01DX009 (ip), vehicle: saline.
Where [2] appears, read: dose: 12.5 mg/kg/injection, schedule: Q01DX009 (ip), vehicle: saline.
[3] abbreviates: dose: 25.0 mg/kg/injection, schedule: Q01DX009 (ip), vehicle: saline.
Where [4] appears, read: dose: 25.0 mg/kg/injection, schedule: Q01DX009 (ip), vehicle: Klucel (hydroxypropylcellulose) (HPC).
Setting [5] is: dose: 50.0 mg/kg/injection, schedule: Q01DX009 (ip), vehicle: Klucel (hydroxypropylcellulose) (HPC).
Where [6] appears, read: dose: 50.0 mg/kg/injection, schedule: Q01DX009 (ip), vehicle: saline with Tween-80.
Where [7] appears, read: dose: 100.0 mg/kg/injection, schedule: Q01DX009 (ip), vehicle: Klucel (hydroxypropylcellulose) (HPC).
Setting [8] is: dose: 100.0 mg/kg/injection, schedule: Q01DX009 (ip), vehicle: saline with Tween-80.
The mark [9] stands for this setting: dose: 100.0 mg/kg/injection, schedule: Q04DX003 (ip), vehicle: saline with Tween-80.
Where [10] appears, read: dose: 200.0 mg/kg/injection, schedule: Q01DX009 (ip), vehicle: saline with Tween-80.
Setting [11] is: dose: 200.0 mg/kg/injection, schedule: Q04DX003 (ip), vehicle: saline with Tween-80.
Setting [12] is: dose: 400.0 mg/kg/injection, schedule: Q04DX003 (ip), vehicle: saline with Tween-80.
The mark [13] stands for this setting: dose: 50.0 mg/kg/injection, schedule: Q04DX003 (ip), vehicle: saline with Tween-80.

Regarding `C=C(Br)CNS(C)(=O)=O`, the T/C under setting [1] was 120 % of control, the T/C under setting [2] is 110 % of control and the T/C under setting [3] is 113 % of control.
Regarding `BrCc1ccc2c3c(ccc(CBr)c13)CC2`, the T/C was 103 % of control (dose: 12.5 mg/kg/injection, schedule: Q01DX009 (ip), vehicle: Klucel (hydroxypropylcellulose) (HPC)); 98 % of control under setting [4]; 96 % of control under setting [5]; 112 % of control under setting [6]; 100 % of control under setting [7]; 122 % of control under setting [8]. Moreover, the T/C is, setting by setting: under setting [9], 107 % of control; under setting [10], 95 % of control; under setting [11], 112 % of control; under setting [12], 105 % of control.
As to `O=C(CBr)c1ccc(I)cc1`, the T/C by setting is: (dose: 1.25 mg/kg/injection, schedule: Q01DX009 (ip), vehicle: saline with Tween-80) 90 % of control; (dose: 2.5 mg/kg/injection, schedule: Q01DX009 (ip), vehicle: saline with Tween-80) 102 % of control; (dose: 5.0 mg/kg/injection, schedule: Q01DX009 (ip), vehicle: saline with Tween-80) 95 % of control; (dose: 10.0 mg/kg/injection, schedule: Q01DX009 (ip), vehicle: saline with Tween-80) 95 % of control; (dose: 20.0 mg/kg/injection, schedule: Q01DX009 (ip), vehicle: saline with Tween-80) 88 % of control.
As to `CC(=O)Nc1ccc(Cl)c(Cl)c1`, the T/C is, setting by setting: under setting [5], 116 % of control; under setting [7], 121 % of control.
For `O=c1oc(-c2ccccc2I)nc2ccccc12`, the T/C was 99 % of control under setting [7] and 94 % of control (dose: 200.0 mg/kg/injection, schedule: Q01DX009 (ip), vehicle: Klucel (hydroxypropylcellulose) (HPC)).
Turning to `CN(C)/N=C\c1ccccc1Cl`, the T/C is, setting by setting: under setting [13], 104 % of control; under setting [9], 102 % of control.
With `COc1cc([C@@H]2c3cc4c(cc3[C@@H](OC3OC5COC(C)OC5C(O)C3O)[C@H]3COC(=O)[C@H]23)OCO4)cc(OC)c1O` (some centres undefined), the T/C (dose: 1.73 mg/kg/injection, schedule: Q01DX009 (ip), vehicle: clinical formulation) was 206 % of control; the T/C (dose: 2.0 mg/kg/injection, schedule: Q01DX009 (ip), vehicle: Klucel (hydroxypropylcellulose) (HPC)) is 150 % of control; the T/C (dose: 2.88 mg/kg/injection, schedule: Q01DX009 (ip), vehicle: clinical formulation) is 240 % of control; the T/C (dose: 4.0 mg/kg/injection, schedule: Q01DX009 (ip), vehicle: Klucel (hydroxypropylcellulose) (HPC)) was 111 % of control; the T/C (dose: 4.8 mg/kg/injection, schedule: Q01DX009 (ip), vehicle: clinical formulation) is 240 % of control; the T/C (dose: 5.0 mg/kg/injection, schedule: Q01DX009 (ip), vehicle: saline) is 252 % of control. The T/C is 202 % of control (dose: 5.0 mg/kg/injection, schedule: Q04DX003 (ip), vehicle: suspension in saline); 276 % of control (dose: 8.0 mg/kg/injection, schedule: Q01DX009 (ip), vehicle: Klucel (hydroxypropylcellulose) (HPC)); 259 % of control (dose: 8.0 mg/kg/injection, schedule: Q01DX009 (ip), vehicle: clinical formulation); 180 % of control (dose: 8.0 mg/kg/injection, schedule: Q04DX003 (ip), vehicle: suspension in saline); 285 % of control (dose: 10.0 mg/kg/injection, schedule: Q01DX009 (ip), vehicle: saline); 208 % of control (dose: 10.0 mg/kg/injection, schedule: Q04DX003 (ip), vehicle: suspension in saline). Moreover, the T/C runs as follows: (dose: 13.3 mg/kg/injection, schedule: Q01DX009 (ip), vehicle: clinical formulation) 53 % of control; (dose: 16.0 mg/kg/injection, schedule: Q04DX003 (ip), vehicle: suspension in saline) 207 % of control; (dose: 20.0 mg/kg/injection, schedule: Q04DX003 (ip), vehicle: suspension in saline) 236 % of control; (dose: 32.0 mg/kg/injection, schedule: Q04DX003 (ip), vehicle: suspension in saline) 85 % of control; (dose: 40.0 mg/kg/injection, schedule: Q04DX003 (ip), vehicle: suspension in saline) 241 % of control; (dose: 64.0 mg/kg/injection, schedule: Q04DX003 (ip), vehicle: suspension in saline) 63 % of control.
For `CCOC(=O)C(C(=O)COC)C(=O)OCC`, the T/C runs as follows: (dose: 25.0 mg/kg/injection, schedule: Q01DX009 (ip), vehicle: water) 102 % of control; (dose: 50.0 mg/kg/injection, schedule: Q01DX009 (ip), vehicle: water) 98 % of control; (dose: 100.0 mg/kg/injection, schedule: Q01DX009 (ip), vehicle: water) 93 % of control.
Turning to `COc1cc2cccc(OC)c(=O)c2c(O)c1OC`, the T/C by setting is: under setting [4], 97 % of control; under setting [5], 105 % of control; under setting [7], 97 % of control.
For `NNc1n[nH]c(=S)n1N`, the T/C runs as follows: (dose: 0.78 mg/kg/injection, schedule: Q01DX009 (ip), vehicle: saline with Tween-80) 88 % of control; (dose: 1.56 mg/kg/injection, schedule: Q01DX009 (ip), vehicle: saline with Tween-80) 93 % of control; (dose: 3.13 mg/kg/injection, schedule: Q01DX009 (ip), vehicle: saline with Tween-80) 90 % of control; (dose: 6.25 mg/kg/injection, schedule: Q01DX009 (ip), vehicle: saline with Tween-80) 86 % of control.
For the molecule `CC(=O)OC1C2CCC(C2)C1C` (centres undefined), the T/C by setting is: under setting [9], 105 % of control; under setting [11], 100 % of control; under setting [12], 97 % of control.
Regarding `O=c1c(O)c(-c2cc(O)c(O)c(O)c2)oc2cc(O)cc(O)c12`, the T/C is, setting by setting: (dose: 25.0 mg/kg/injection, schedule: Q02DX009 (ip), vehicle: saline with Tween-80) 95 % of control; (dose: 50.0 mg/kg/injection, schedule: Q02DX009 (ip), vehicle: saline with Tween-80) 110 % of control; (dose: 100.0 mg/kg/injection, schedule: Q02DX009 (ip), vehicle: saline with Tween-80) 105 % of control.
For the molecule `O=S(=O)(O)c1ccc(/C2=c3\cc/c([n-]3)=C(\c3ccc(S(=O)(=O)O)cc3)c3ccc([n-]3)/C(c3ccc(S(=O)(=O)O)cc3)=c3/cc/c([n-]3)=C(\c3ccc(S(=O)(=O)O)cc3)c3ccc2[n-]3)cc1.[Co]`, the T/C runs as follows: (dose: 3.13 mg/kg/injection, schedule: Q01DX009 (ip), vehicle: saline) 111 % of control; under setting [1], 107 % of control; under setting [2], 108 % of control; under setting [3], 101 % of control.
Consider `CCC(C)C(NC=O)C(=O)O` (centres undefined), for which the T/C reads like this: under setting [6], 97 % of control; under setting [8], 95 % of control; under setting [10], 92 % of control; (dose: 400.0 mg/kg/injection, schedule: Q01DX009 (ip), vehicle: saline with Tween-80) 91 % of control.
On to `CC(NC(=O)C1CCCN1C(=O)OCc1ccccc1)C(=O)O` (centres undefined), for which the T/C under setting [6] is 91 % of control and the T/C under setting [8] was 90 % of control.
For `CC(=O)C1=C(C)NC(C)=C(C(C)=O)C1c1cccc([N+](=O)[O-])c1`, the T/C by setting is: (dose: 25.0 mg/kg/injection, schedule: Q01DX009 (ip), vehicle: saline with Tween-80) 94 % of control; under setting [6], 94 % of control; under setting [8], 97 % of control.
As to `CC1=C2CC3CCC(C)C2(CC1)C3(C)C` (centres undefined), the T/C is 105 % of control (dose: 25.0 mg/kg/injection, schedule: Q04DX003 (ip), vehicle: saline with Tween-80); 100 % of control under setting [13]; 91 % of control under setting [9].
